The text below walks through data of patent US9896434B2, “Substituted indanone compounds as GPR119 modulators for the treatment of diabetes, obesity, dyslipidemia and related disorders” (SANOFI, priority 2014, dated 2018).

The target of the assay is T1, human GPR119 (Homo sapiens, UniProt Q8TDV5).
T1 construct: expressed in transfected cells
T1 sequence (Q8TDV5 1-335): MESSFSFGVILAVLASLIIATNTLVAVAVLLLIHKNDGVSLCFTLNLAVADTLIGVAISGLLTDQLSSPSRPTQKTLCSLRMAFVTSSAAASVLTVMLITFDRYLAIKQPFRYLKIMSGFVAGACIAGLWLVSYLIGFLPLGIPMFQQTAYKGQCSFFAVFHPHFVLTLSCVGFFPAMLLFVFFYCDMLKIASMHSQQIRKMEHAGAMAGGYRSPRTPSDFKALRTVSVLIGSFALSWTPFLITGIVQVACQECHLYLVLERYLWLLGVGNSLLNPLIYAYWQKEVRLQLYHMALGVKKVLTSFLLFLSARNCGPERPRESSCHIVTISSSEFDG
Kind of assay: Functional cellular assay measuring GPR119-mediated cAMP release (HTRF). Format: cell-based. Particulars: HEK-293 cell line stably expressing recombinant human GPR119; cAMP response, 30 minutes at room temperature. As for the experimental part:
Functional Cellular Assays Measuring GPR119-Mediated cAMP Release
Compounds of the invention, which are agonists of GPR119, were characterized by functional assays measuring the cAMP response of HEK-293 cell lines stably expressing recombinant GPR119 from man, mouse or rat, or by using a hamster cell line HIT-T15 expressing GPR119 endogenously. The cAMP content was determined using a kit based on homogenous time-resolved fluorescence (HTRF) from Cisbio Corp. (cat. no. 62AM4PEC). For preparation, cells were split into T175 culture flasks and grown to near confluency in medium (DMEM/10% FCS for HEK-293 cells, and F-12K medium/10% horse serum/2.5% FCS for HIT-T15 cells, respectively). Medium was then removed and cells washed with PBS lacking calcium and magnesium ions, followed by proteinase treatment with accutase (Sigma-Aldrich, cat. no. A6964). Detached cells were washed and resuspended in assay buffer (1×HBSS; 20 mM HEPES, 0.1% BSA, 2 mM IBMX) and cellular density determined. They were then diluted to 400000 cells/mL and 25 μL-aliquots dispensed to the wells of 96-well plates. For measurement, 25 μL of test compound in assay buffer was added and incubated for 30 minutes at room temperature. After addition of HTRF reagents diluted in lysis buffer, the plates were incubated for 1 hour, followed by measuring the fluorescence ratio at 665 vs. 620 nm. Potency of the agonists was quantified by determining the concentrations that caused 50% of the maximal response/activation (EC50). See Table 4 for exemplary data obtained using the cell line expressing human GPR119.
For orientation: Time-resolved FRET reads energy transfer from a long-lived donor to a nearby acceptor.
As to `COC(=O)C[C@@H]1CC(=O)c2cc(N3CC[C@@H](Oc4ccc(OCC5CC5)nc4)C3=O)ccc21` [Example 1-14, methyl 2-[(1S)-5-[(3R)-3-[[6-(cyclopropylmethoxy)-3-pyridyl]oxy]-2-oxo-pyrrolidin-1-yl]-3-oxo-indan-1-yl]acetate], the EC50 (commonly the concentration needed to bring the measured effect to its halfway point) is 19 nM.
The figure for `O=C1CC(CCO)c2ccc(N3CC[C@@H](Oc4ccc(Oc5ccc(F)cc5)nc4)C3=O)cc21` (stereo partly drawn) [Example 1-01, (3R)-3-[[6-(4-Fluorophenoxy)-3-pyridyl]oxy]-1-[1-(2-hydroxyethyl)-3-oxo-indan-5-yl]pyrrolidin-2-one] is 311 nM.
In the case of `CNC(=O)CC1Cc2c(F)cc(N3CC[C@@H](Oc4ccc(OCC5CC5)nc4)C3=O)cc2C1=O` (stereo partly drawn) [Example 3-08, 2-[6-[(3R)-3-[[6-(cyclopropylmethoxy)-3-pyridyl]oxy]-2-oxo-pyrrolidin-1-yl]-4-fluoro-1-oxo-indan-2-yl]-N-methyl-acetamide], the EC50 was 66 nM.
With `NC(=O)CC1Cc2c(F)cc(N3CC[C@@H](Oc4ccc(OCC5CC5)nc4)C3=O)cc2C1=O` (stereo partly drawn) [Example 3-05, 2-[6-[(3R)-3-[[6-(cyclopropylmethoxy)-3-pyridyl]oxy]-2-oxo-pyrrolidin-1-yl]-4-fluoro-1-oxo-indan-2-yl]acetamide], the EC50 stood at 78 nM.
On to `COC(=O)CC1Cc2ccc(N3CC[C@@H](Oc4ccc(OCC5CC5)nc4)C3=O)cc2C1=O` (stereo partly drawn) [Example 1-12, methyl 2-[6-[(3R)-3-[[6-(cyclopropylmethoxy)-3-pyridyl]oxy]-2-oxo-pyrrolidin-1-yl]-1-oxo-indan-2-yl]acetate], for which the EC50 worked out at 29 nM.
Consider `CN(C)C(=O)CC1CC(=O)c2cc(N3CC[C@@H](Oc4ccc(OCC5CC5)nc4)C3=O)ccc21` (stereo partly drawn) [Example 3-01, 2-[5-[(3R)-3-[[6-(cyclopropylmethoxy)-3-pyridyl]oxy]-2-oxo-pyrrolidin-1-yl]-3-oxo-indan-1-yl]-N,N-dimethyl-acetamide], for which the EC50 was 82 nM.
The figure for `CNC(=O)CC1CC(=O)c2cc(N3CC[C@@H](Oc4ccc(OCC5CC5)nc4)C3=O)ccc21` (stereo partly drawn) [Example 3-02, 2-[5-[(3R)-3-[[6-(cyclopropylmethoxy)-3-pyridyl]oxy]-2-oxo-pyrrolidin-1-yl]-3-oxo-indan-1-yl]-N-methyl-acetamide] is 188 nM.
Consider `COC(=O)C1Cc2ccc(N3CC[C@@H](Oc4ccc(OCC5CC5)nc4)C3=O)cc2C1=O` (stereo partly drawn) [Example 1-10, methyl 6-[(3R)-3-[[6-(cyclopropylmethoxy)-3-pyridyl]oxy]-2-oxo-pyrrolidin-1-yl]-1-oxo-indane-2-carboxylate], for which the half-maximal effective concentration (EC50) came to 41 nM.
For `COC(=O)CC1CC(=O)c2cc(N3CC[C@@H](Oc4ccc(OC5CC5)nc4)C3=O)cc(F)c21` (stereo partly drawn) [Example 1-11, methyl 2-[5-[(3R)-3-[[6-(cyclopropoxy)-3-pyridyl]oxy]-2-oxo-pyrrolidin-1-yl]-7-fluoro-3-oxo-indan-1-yl]acetate], the EC50 came to 38 nM.
For `O=C(CC1CC(=O)c2cc(N3CC[C@@H](Oc4ccc(OCC5CC5)nc4)C3=O)ccc21)NC1CC1` (stereo partly drawn) [Example 3-03, N-cyclopropyl-2-[5-[(3R)-3-[[6-(cyclopropylmethoxy)-3-pyridyl]oxy]-2-oxo-pyrrolidin-1-yl]-3-oxo-indan-1-yl]acetamide], the EC50 was determined as 339 nM.
For `O=C(O)CC1CC(=O)c2cc(N3CC[C@@H](Oc4ccc(OCC5CC5)nc4)C3=O)ccc21` (stereo partly drawn) [Example 2-02, {5-[(R)-3-(6-Cyclopropylmethoxy-pyridin-3-yloxy)-2-oxo-pyrrolidin-1-yl]-3-oxo-indan-1-yl}-acetic acid], the EC50 was determined as 135 nM.
With `COC(=O)C[C@H]1CC(=O)c2cc(N3CC[C@@H](Oc4ccc(OCC5CC5)nc4)C3=O)ccc21` [Example 1-15, methyl 2-[(1R)-5-[(3R)-3-[[6-(cyclopropylmethoxy)-3-pyridyl]oxy]-2-oxo-pyrrolidin-1-yl]-3-oxo-indan-1-yl]acetate], the EC50 was 16 nM.
Regarding `COC(=O)CC1Cc2ccc(N3CCC(Oc4ccc(OCCC(C)C)cc4)C3=O)cc2C1=O` (centres unmarked) [Example 1-02, methyl 2-[6-[3-(4-isopentyloxyphenoxy)-2-oxo-pyrrolidin-1-yl]-1-oxo-indan-2-yl]acetate], the EC50 came out at 262 nM.
On to `COC(=O)CC1CC(=O)c2cc(N3CC[C@@H](Oc4ccc(OCC5CC5)nc4)C3=O)ccc21` (stereo partly drawn) [Example 1-06, methyl 2-[5-[(3R)-3-[[6-(cyclopropylmethoxy)-3-pyridyl]oxy]-2-oxo-pyrrolidin-1-yl]-3-oxo-indan-1-yl]acetate], for which the EC50 is 19 nM.
With `CN(C)C(=O)CC1CC(=O)c2cc(N3CC[C@@H](Oc4ccc(OCC5CC5)nc4)C3=O)cc(F)c21` (stereo partly drawn) [Example 3-11, 2-[5-[(3R)-3-[[6-(cyclopropylmethoxy)-3-pyridyl]oxy]-2-oxo-pyrrolidin-1-yl]-7-fluoro-3-oxo-indan-1-yl]-N,N-dimethyl-acetamide] the figure was 59 nM.
On to `O=C(O)CC1CC(=O)c2cc(N3CC[C@@H](Oc4ccc(OCC5CC5)nc4)C3=O)cc(F)c21` (stereo partly drawn) [Example 2-03, 2-[5-[(3R)-3-[[6-(cyclopropylmethoxy)-3-pyridyl]oxy]-2-oxo-pyrrolidin-1-yl]-7-fluoro-3-oxo-indan-1-yl]acetic acid], for which the EC50 worked out at 218 nM.
With `O=C(CC1Cc2c(F)cc(N3CC[C@@H](Oc4ccc(OCC5CC5)nc4)C3=O)cc2C1=O)NCCO` (stereo partly drawn) [Example 3-09, 2-{6-[(R)-3-(6-cyclopropylmethoxy-pyridin-3-yloxy)-2-oxo-pyrrolidin-1-yl]-4-fluoro-1-oxo-indan-2-yl}-N-(2-hydroxy-ethyl)-acetamide] the figure was 289 nM; with `O=C1CC(CO)c2ccc(N3CC[C@@H](Oc4ccc(OCC5CC5)nc4)C3=O)cc21` (stereo partly drawn) [Example 1-18, (3R)-3-[[6-(cyclopropylmethoxy)-3-pyridyl]oxy]-1-[1-(hydroxymethyl)-3-oxo-indan-5-yl]pyrrolidin-2-one], 198 nM; with `NC(=O)CC1CC(=O)c2cc(N3CC[C@@H](Oc4ccc(OCC5CC5)nc4)C3=O)cc(F)c21` (stereo partly drawn) [Example 3-10, 2-[5-[(3R)-3-[[6-(cyclopropylmethoxy)-3-pyridyl]oxy]-2-oxo-pyrrolidin-1-yl]-7-fluoro-3-oxo-indan-1-yl]acetamide], 73 nM.
The figure for `O=C1c2cc(N3CC[C@@H](Oc4ccc(OCC5CC5)nc4)C3=O)cc(F)c2CC1CCO` (stereo partly drawn) [Example 1-05, (3R)-3-[[6-(cyclopropylmethoxy)-3-pyridyl]oxy]-1-[7-fluoro-2-(2-hydroxyethyl)-3-oxo-indan-5-yl]pyrrolidin-2-one] is 233 nM; for `O=C1CC(CCO)c2ccc(N3CC[C@@H](Oc4ccc(OCC5CC5)nc4)C3=O)cc21` (stereo partly drawn) [Example 1-08, (3R)-3-[[6-(cyclopropylmethoxy)-3-pyridyl]oxy]-1-[1-(2-hydroxyethyl)-3-oxo-indan-5-yl]pyrrolidin-2-one] it is 79 nM; for `CN(C)C(=O)C1CC(=O)c2cc(N3CC[C@@H](Oc4ccc(OCC5CC5)nc4)C3=O)cc(F)c21` (stereo partly drawn) [Example 1-16, 5-[(3R)-3-[[6-(cyclopropylmethoxy)-3-pyridyl]oxy]-2-oxo-pyrrolidin-1-yl]-7-fluoro-N,N-dimethyl-3-oxo-indane-1-carboxamide] it is 117 nM.
The figure for `O=C(O)C[C@@H]1CC(=O)c2cc(N3CC[C@@H](Oc4ccc(OCC5CC5)nc4)C3=O)ccc21` [Example 2-05, 2-[(1S)-5-[(3R)-3-[[6-(cyclopropylmethoxy)-3-pyridyl]oxy]-2-oxo-pyrrolidin-1-yl]-3-oxo-indan-1-yl]acetic acid] is 1990 nM.
